Results published in US10494360B2, “Inhibitors of indoleamine 2,3-dioxygenase” (NETHERLANDS TRANSLATIONAL RESEARCH CENTER B.V., priority 2016, dated 2019).
“And” between values parts separate entries of the source, which are not always exact repeats. Equal values may be shown once.

Columns and labels:
IDO1 [1] = biological target: T1, IDO1 (Homo sapiens, UniProt P14902); assay: Cell-based assay for IDO1 in interferon-γ stimulated A-375 melanoma cells; settings: interferon-γ stimulation, 48 hours, read-out: IC50, cell-based IDO1 (NFK levels)
T1 sequence (P14902 whole entry, species assumed): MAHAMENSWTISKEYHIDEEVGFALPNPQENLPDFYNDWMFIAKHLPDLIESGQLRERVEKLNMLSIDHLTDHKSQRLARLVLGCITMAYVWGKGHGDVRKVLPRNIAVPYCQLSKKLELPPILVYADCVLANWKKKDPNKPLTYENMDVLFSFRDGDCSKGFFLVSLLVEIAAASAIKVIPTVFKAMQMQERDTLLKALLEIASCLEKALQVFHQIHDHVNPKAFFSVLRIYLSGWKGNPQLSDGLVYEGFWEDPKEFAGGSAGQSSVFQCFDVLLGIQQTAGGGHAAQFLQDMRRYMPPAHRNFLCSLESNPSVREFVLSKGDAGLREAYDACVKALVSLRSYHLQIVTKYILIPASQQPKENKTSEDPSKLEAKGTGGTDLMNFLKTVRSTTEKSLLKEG
Procedure: The biological activity of IDO1 inhibitors can be measured by applying above detection methods to cells that are treated with test compound. The expression of IDO1 can be induced in many different cell lines by stimulation with IFNγ (Takikawa, O., et al., J. Biol. Chem. 263: 2041; 1988; Seegers, et al.), or IDO1 can be expressed in cells that lack endogenous IDO1 by transfection of an expression vector containing IDO1 cDNA.
A-375 melanoma cells were purchased from LGC Standards GmbH (Wesel, Germany) and cultured in DMEM tissue culture medium (Life Technologies, Bleiswijk, The Netherlands), supplemented with 10% (v/v) bovine calf serum. Compounds were dissolved in DMSO and diluted in DMEM. Final DMSO concentration in the assay was 0.4% (v/v). Eight thousand cells per well in 35 μl were seeded in a black 384-well tissue plate (cat. No. 781086; Greiner Bio-One GmbH, Frickenhausen, Germany) and allowed to adhere by incubation at 37° C., 95% humidity, and 5% CO2 overnight. Then, 5 μl of compound solution was added to the cells 1 hour prior to stimulation with 5 μl of 500 ng/ml interferon-γ (R&D Systems, Minneapolis, Minn., USA) diluted in DMEM medium. At the same time, 5 μl of L-tryptophan in 20 mM Hepes buffer pH 7.4 was added. Incubation was continued for 48 hours. To determine NFK levels, 12 μl NFK Green™ (NTRC, Oss, The Netherlands) was added to each well, and the plate was sealed and incubated for 4 hours at 37° C. Fluorescence was measured on an EnVision multimode reader (Perkin Elmer, Waltham, Mass., USA). IC50 were calculated using XLfit™ software (ID Business Solutions, Ltd., Surrey, U.K.).

IDO1 [2] = biological target: T1, IDO1; assay: Biochemical IDO1 assay (NFK GreenScreen); design: Recombinant full-length IDO1 (Seegers, N., et al.) and all other assay components were diluted in IDO1 reaction buffer; made in house; settings: for IC50: recombinant full-length IDO1 25 nM, L-tryptophan 100 μM, NFK Green detection, read-out: IC50, inhibitory potency on IDO1
Procedure: Inhibition of IDO1 activity can be measured by determining the enzymatic conversion of L-tryptophan into N-formylkynurenine (NFK) in a reaction mixture containing IDO1 and test compound. The formation of NFK can be detected directly by, for instance, high-performance liquid chromatography (HPLC) methods, or by intrinsic fluorescence.
Compounds were serially diluted in dimethylsulfoxide (DMSO) and finally in IDO1 reaction buffer, consisting of 50 mM NaH2PO4, pH7.0, supplemented with 0.05% Tween-20 (cat. No. P7949; Sigma Aldrich) and 1% glycerol. Recombinant full-length IDO1 (Seegers, N., et al.) and all other assay components were diluted in IDO1 reaction buffer. […] Subsequently, 10 μl of 0.4 mM of the substrate L-tryptophan was added, i.e., the final concentration of L-tryptophan was 100 μM. The DMSO concentration in the assay was 0.3%. […] Incubation was continued for 60 min at room temperature. Then, 10 μl of NFK Green™ (NTRC, Oss, The Netherlands) was added, the plate was sealed, and the reaction was developed for 3 hours at 37° C. To determine the production of N-formyl kynurenine (NFK), the seal was removed and fluorescence was read on an EnVision multimode reader (Perkin Elmer, Waltham, Mass., USA). IC50 were calculated using XLfit™ software (ID Business Solutions, Ltd., Surrey, U.K.).

Row | SMILES | IC50 (IDO1 [1]) | IC50 (IDO1 [2]) | relative activity of separated isomers (IDO1 [2]; less active / most active isomer of the pair, assay not given)
1 | O=C1CN(C(=O)c2c(F)cc(C#CC3CC3)cc2F)C(c2cccc(Br)c2)N1O (stereo not shown) [Example 106, 2-(3-Bromophenyl)-1-[4-(2-cyclopropylethynyl)-2,6-difluoro-benzoyl]-3-hydroxy-imidazolidin-4-one] | < 5 µM | ≤ 1 µM | 
2 | COCCNC(=O)c1cc(F)c(C(=O)N2CC(=O)N(O)C2c2cccc(Br)c2)c(F)c1 (stereo not shown) [Example 137, 4-[2-(3-Bromophenyl)-3-hydroxy-4-oxo-imidazolidine-1-carbonyl]-3,5-difluoro-N-(2-methoxyethyl)benzamide] | < 5 µM | ≤ 1 µM | 
3 | O=C1CN(C(=O)c2ccccc2)C(c2ccc(F)c(Br)c2)N1O (stereo not shown) [Example 39, 1-Benzoyl-2-(3-bromo-4-fluoro-phenyl)-3-hydroxy-imidazolidin-4-one] | < 5 µM | ≤ 5 µM and 1 to 5 µM | 
4 | O=C1CN(C(=O)c2c(F)cccc2Cl)C(c2cccc(C(F)(F)F)c2)N1O (stereo not shown) [Example 3, 1-(2-Chloro-6-fluoro-benzoyl)-3-hydroxy-2-[3-(trifluoromethyl)phenyl]imidazolidin-4-one] | < 5 µM | ≤ 1 µM | 
5 | O=C1CN(C(=O)c2c(F)cc(C3CC3)cc2F)C(c2cccc(Br)c2)N1O (stereo not shown) [Example 114, 2-(3-Bromophenyl)-1-(4-cyclopropyl-2,6-difluoro-benzoyl)-3-hydroxy-imidazolidin-4-one] | < 5 µM | ≤ 1 µM | 
6 | O=C1CN(C(=O)c2ccccc2F)C(c2ccc(F)c(Cl)c2)N1O (stereo not shown) [Example 51, 2-(3-Chloro-4-fluoro-phenyl)-1-(2-fluorobenzoyl)-3-hydroxy-imidazolidin-4-one] | < 5 µM | ≤ 1 µM | 
7 | O=C1CN(C(=O)c2ccccc2F)C(c2ccc(F)c(Br)c2)N1O (stereo not shown) [Example 46, 2-(3-Bromo-4-fluoro-phenyl)-1-(2-fluoro-benzoyl)-3-hydroxy-imidazolidin-4-one] | < 5 µM | ≤ 1 µM | 
8 | O=C1CN(C(=O)c2c(F)cccc2F)C(c2ccc(F)c(Cl)c2)N1O (stereo not shown) [Example 52, 2-(3-Chloro-4-fluoro-phenyl)-1-(2,6-difluorobenzoyl)-3-hydroxy-imidazolidin-4-one] | < 5 µM | ≤ 1 µM | 
9 | O=C1CN(C(=O)c2ccc(F)cc2F)C(c2cccc(Br)c2)N1O (stereo not shown) [Example 54, 2-(3-Bromophenyl)-1-(2,4-difluorobenzoyl)-3-hydroxy-imidazolidin-4-one] | < 5 µM | ≤ 1 µM | 
10 | O=C1CN(C(=O)c2ccc(F)cc2F)C(c2cccc(Cl)c2)N1O (stereo not shown) [Example 59, 2-(3-Chlorophenyl)-1-(2,4-difluorobenzoyl)-3-hydroxy-imidazolidin-4-one] | < 5 µM | ≤ 1 µM | 
11 | O=C1CN(C(=O)c2ccccc2Cl)C(c2cccc(C(F)(F)F)c2)N1O (stereo not shown) [Example 2, 1-(2-Chlorobenzoyl)-3-hydroxy-2-[3-(trifluoromethyl)phenyl]imidazolidin-4-one] | < 5 µM | ≤ 5 µM and 1 to 5 µM | 
12 | O=C1CN(C(=O)c2c(F)cccc2F)C(c2cccc([N+](=O)[O-])c2)N1O (stereo not shown) [Example 67, 1-(2,6-Difluorobenzoyl)-3-hydroxy-2-(3-nitrophenyl)imidazolidin-4-one] | < 5 µM | ≤ 1 µM | 
13 | C[C@@H](c1ccccc1)N1CC(=O)N(O)C1c1cccc(I)c1 (single isomer, unassigned) [Example 140a] | < 5 µM | ≤ 5 µM and 1 to 5 µM | less active isomer
14 | N#Cc1cc(F)c(C(=O)N2CC(=O)N(O)C2c2cccc(Br)c2)c(Cl)c1 (stereo not shown) [Example 25, 4-[2-(3-Bromophenyl)-3-hydroxy-4-oxo-imidazolidine-1-carbonyl]-3-chloro-5-fluoro-benzonitrile] | < 5 µM | ≤ 5 µM and 1 to 5 µM | 
15 | CC(C)C#Cc1cc(F)c(C(=O)N2CC(=O)N(O)C2c2cccc(Br)c2)c(F)c1 (stereo not shown) [Example 107, 2-(3-Bromophenyl)-1-[2,6-difluoro-4-(3-methylbut-1-ynyl)benzoyl]-3-hydroxy-imidazolidin-4-one] | < 5 µM | ≤ 1 µM | 
16 | O=C1CN(C(=O)c2cc(F)ccc2F)C(c2cccc(Br)c2)N1O (stereo not shown) [Example 26, 2-(3-Bromophenyl)-1-(2,5-difluorobenzoyl)-3-hydroxy-imidazolidin-4-one] | < 5 µM | ≤ 1 µM | 
17 | O=C1CN(C(=O)c2ccccc2F)C(c2cccc(Br)c2)N1O (stereo not shown) [Example 33, 2-(3-Bromophenyl)-1-(2-fluorobenzoyl)-3-hydroxy-imidazolidin-4-one] | < 5 µM | ≤ 1 µM | 
18 | O=C1CN(C(=O)c2c(F)cc(N3CCC3)cc2F)C(c2cccc(Br)c2)N1O (stereo not shown) [Example 134, 1-[4-(Azetidin-1-yl)-2,6-difluoro-benzoyl]-2-(3-bromophenyl)-3-hydroxy-imidazolidin-4-one] |  | ≤ 5 µM and 1 to 5 µM | 

Continued, values first:

Row | IC50 (IDO1 [1]) | IC50 (IDO1 [2]) | relative activity of separated isomers (IDO1 [2]; less active / most active isomer of the pair, assay not given) | SMILES
19 | < 5 µM | ≤ 1 µM |  | O=C1CN(C(=O)c2c(F)cc(F)cc2F)C(c2cccc(Br)c2)N1O (stereo not shown) [Example 82, 2-(3-Bromophenyl)-3-hydroxy-1-(2,4,6-trifluorobenzoyl)imidazolidin-4-one]
20 | < 5 µM | ≤ 1 µM |  | COc1cc(F)c(C(=O)N2CC(=O)N(O)C2c2cccc(Br)c2)c(F)c1 (stereo not shown) [Example 66, 2-(3-Bromophenyl)-1-(2,6-difluoro-4-methoxy-benzoyl)-3-hydroxy-imidazolidin-4-one]
21 | < 5 µM | ≤ 1 µM |  | C=Cc1cc(F)c(C(=O)N2CC(=O)N(O)C2c2cccc(Br)c2)c(F)c1 (stereo not shown) [Example 115, 2-(3-Bromophenyl)-1-(2,6-difluoro-4-vinyl-benzoyl)-3-hydroxy-imidazolidin-4-one]
22 | < 5 µM | ≤ 1 µM |  | O=C1CN(C(=O)c2ccccc2F)C(c2cccc(I)c2)N1O (stereo not shown) [Example 73, 1-(2-Fluorobenzoyl)-3-hydroxy-2-(3-iodophenyl)imidazolidin-4-one]
23 | < 5 µM | ≤ 1 µM |  | O=C1CN(C(=O)c2c(F)cccc2F)C(c2cccc(Br)c2)N1O (stereo not shown) [Example 27, 2-(3-Bromophenyl)-1-(2,6-difluorobenzoyl)-3-hydroxy-imidazolidin-4-one]
24 | < 5 µM | ≤ 1 µM |  | O=C1CN(C(=O)c2ccncc2F)C(c2cccc(Br)c2)N1O (stereo not shown) [Example 86, 2-(3-Bromophenyl)-1-(3-fluoropyridine-4-carbonyl)-3-hydroxy-imidazolidin-4-one]
25 | < 5 µM | ≤ 5 µM and 1 to 5 µM |  | O=C1CN(C(=O)c2ccccc2)C(c2cccc(Br)c2)N1O (stereo not shown) [Example 17, 1-Benzoyl-2-(3-bromophenyl)-3-hydroxy-imidazolidin-4-one]
26 | < 5 µM | ≤ 1 µM |  | O=C1CN(C(=O)c2ccccc2F)C(c2cccc(Cl)c2)N1O (stereo not shown) [Example 13, 2-(3-Chlorophenyl)-1-(2-fluorobenzoyl)-3-hydroxy-imidazolidin-4-one]
27 | < 5 µM | ≤ 1 µM |  | O=C1CN(C(=O)c2cccnc2F)C(c2cccc(Br)c2)N1O (stereo not shown) [Example 87, 2-(3-Bromophenyl)-1-(2-fluoropyridine-3-carbonyl)-3-hydroxy-imidazolidin-4-one]
28 | < 5 µM | ≤ 1 µM |  | O=C1CN(C(=O)c2c(F)cc(Br)cc2F)C(c2cccc(Br)c2)N1O (stereo not shown) [Example 85, 1-(4-Bromo-2,6-difluoro-benzoyl)-2-(3-bromophenyl)-3-hydroxy-imidazolidin-4-one]
29 | < 5 µM | ≤ 5 µM and 1 to 5 µM |  | O=C1CN(C(=O)c2ccccc2F)C(c2cccc(C(F)(F)F)c2)N1O (stereo not shown) [Example 10, 1-(2-Fluorobenzoyl)-3-hydroxy-2-[3-(trifluoromethyl)phenyl]imidazolidin-4-one]
